The conditions of data set [1]: Crystal; DSC.
Data set [2] in a line: Molar enthalpy of transition or fusion. The conditions noted are these: Crystal; DSC.

Numbers after ± are expanded uncertainties.

Turning to `N#CCC(N)=O` [2-cyanoethanamide], the Triple point temperature in data set [1] is 392.84 ± 1.2 K. Further, the “Molar enthalpy of transition or fusion” value in data set [2] stood at 5.41 ± 0.43 kcal/mol.

Source of the values: the NIST ThermoML archive (doi:10.1021/acs.jced.8b01205).
